This assay relates to Tumorart P 388 (Leukämie). Kind of assay: Survival of mice bearing P 388 leukemia (NCI protocol 1200), T/C. In kind it is in vivo, Maus. The settings on record: for Testergebnis in % T/C: repeat experiment; for response vs control in vivo at 50 mg/kg / response vs control in vivo at 100 mg/kg / response vs control in vivo at 200 mg/kg / response vs control in vivo at 25 mg/kg: Mus musculus; for T/C-Wert: unit not given; for Verlängerungsrate T/C: 9 injections; for response vs control in vivo at 25 mg/kg: P388, read-out: Testergebnis T/C (T/C-Wert), 25 mg/kg. An excerpt: Die nachfolgenden Versuche wurden durchgeführt nach Testvorschriften des National Cancer Institute Bethesda, Maryland 200014, veröffentlicht in Cancer Chemotherapy Reports" Part. 3, September 1972, Vol. 3, Nr. 2. Als Wirksubstanz wurde 1,3-Diglycidyl-benzimidazolon des i vorstehenden Beispiels 1 verwendet. Die Substanz wurde als wäßrige, 1%ige Injektionslösung unmittelbar vor der Applikation frisch hergestellt.
Bei Mäusen wurde gemäß Protokoll 1200 (Seite 91, c.) die Tumorart P 388 (Leukämie) i.p. mit 10^6 Zellen/Maus gesetzt. Die unbehandelten Tiere hatten eine mittlere überlebensdauer von 9,9 Tagen.
Es wird der Wirkstoff appliziert. Der Wirkstoff wird dabei in 9.Gaben in unterschiedlichen Versuchsreihen einmal zu je 200 mg/kg und in einer anderen zu 100 mg/kg und in einer dritten Versuchsreihe zu je 50 mg/kg verabreicht. In beiden Fällen wird eine signifikante Verlängerung der Lebensdauer der behandelten Testtiere gegenüber der Kontrollgruppe der nicht behandelten Tiere erzielt. […] Bei der Testgruppe mit der Dosis von 100 mg/kg beträgt die durchschnittliche Lebenserwartung der Versuchstiere 18 Tage, T/C 181 %. Die Gruppe mit der Dosis 50 mg/kg hatte eine durchschnittliche Lebenserwartung von 15,3 Tagen, T/C 154 %. […]

Where [1] appears, read: P388, 50 mg/kg per single dose, 9 doses, first test series, read-out: Verlängerungsrate T/C (Testergebnis in % T/C).
The mark [2] stands for this setting: P388, 100 mg/kg per single dose, 9 doses, first test series, read-out: Verlängerungsrate T/C (Testergebnis in % T/C).
Setting [3] is: P388, 200 mg/kg per single dose, 9 doses, first test series, read-out: Verlängerungsrate T/C (Testergebnis in % T/C).
Setting [4] is: P388, read-out: Verlängerungsrate T/C (Testergebnis in % T/C), 50 mg/kg per single dose, 9 doses, first test series.
Where [5] appears, read: P388, read-out: Verlängerungsrate T/C (Testergebnis in % T/C), 100 mg/kg per single dose, 9 doses, first test series.
[6] abbreviates: P388, 50 mg/kg per single dose, first series, unit inferred, read-out: Testergebnis T/C (T/C-Wert).
The mark [7] stands for this setting: P388, 100 mg/kg per single dose, first series, unit inferred, read-out: Testergebnis T/C (T/C-Wert).
Setting [8] is: P388, 200 mg/kg per single dose, first series, unit inferred, read-out: Testergebnis T/C (T/C-Wert).
[9] abbreviates: 50 mg/kg per single dose, 9 doses.
Setting [10] is: 50 mg/kg per single dose, 9 doses, first test series.
Setting [11] is: 100 mg/kg per single dose, 9 doses.
Setting [12] is: 100 mg/kg per single dose, 9 doses, first test series.
Setting [13] is: 200 mg/kg per single dose, 9 doses.
[14] abbreviates: 200 mg/kg per single dose, 9 doses, first test series.
[15] abbreviates: P388, read-out: Testergebnis T/C (T/C-Wert), 50 mg/kg per single dose, first series, unit inferred.
Where [16] appears, read: P388, read-out: Testergebnis T/C (T/C-Wert), 50 mg/kg, second series, unit inferred.
[17] abbreviates: P388, read-out: Testergebnis T/C (T/C-Wert), 100 mg/kg per single dose, first series, unit inferred.
The mark [18] stands for this setting: P388, read-out: Testergebnis T/C (T/C-Wert), 100 mg/kg, second series, unit inferred.
[19] abbreviates: P388, read-out: Testergebnis T/C (T/C-Wert), 200 mg/kg, second series, unit inferred.

Read-outs that look alike come from different tables or passages of the source.

Turning to `CCC1(c2ccccc2)C(=O)N(CC2CO2)C(=O)N1CC1CO1` (centres unmarked) [R5 CH3-CH2-R6 C6H5-, Diglycidyl-5-phenyl-5-ethylhydantoin], the “Testergebnis in % T/C” value was 111% (50 mg/kg), 146% (100 mg/kg) and 188% (200 mg/kg). The response vs control in vivo at 50 mg/kg under setting [1] is 125%. Also, under setting [2], the response vs control in vivo at 100 mg/kg stood at 156%. Under setting [3], the response vs control in vivo at 200 mg/kg is 222%.

`O=c1c2c(ncn2CC2CO2)n(CC2CO2)c(=O)n1CC1CO1` (centres unmarked) [Beispiel 23, 1,3,7-Triglycidyl-xanthin]: under setting [4], the response vs control in vivo at 50 mg/kg was determined as 147%. The response vs control in vivo at 100 mg/kg under setting [5] came to 147%. Further, for the setting “P388, read-out: Verlängerungsrate T/C (Testergebnis in % T/C), 200 mg/kg per single dose, 9 doses, first test series”, the response vs control in vivo at 200 mg/kg came out at 173%.

As for `O=c1ccn(CC2CO2)c(=O)n1Cn1c(=O)ccn(CC2CO2)c1=O` (centres unmarked) [[drawing] the 18th table r17], the response vs control in vivo at 50 mg/kg under setting [6] came out at 115%. Further, the response vs control in vivo at 100 mg/kg under setting [7] worked out at 139%. Moreover, the response vs control in vivo at 200 mg/kg under setting [8] was 186%.

Take `O=c1n(CC2CO2)c(=O)n(CC2CO2)n1CC1CO1` (centres unmarked) [Beispiel 26, 1,2,4-Triglycidylurazol]: the T/C-Wert was more than 260 (25 mg/kg per single dose), 180 (6,25 mg/kg per single dose) and 230 (12,5 mg/kg per single dose). Moreover, under setting [6], the response vs control in vivo at 50 mg/kg was found to be 298%.

On to `COc1ccc2c(c1)n(CC1CO1)c(=O)n2CC1CO1` (centres unmarked) [R2 -H R3 -O-CH3, N,N-Diglycidyl-5-methoxy-benzimidazolon], for which the response vs control in vivo at 50 mg/kg under setting [1] is 175%. For the same molecule, the response vs control in vivo at 100 mg/kg under setting [2] was found to be 225%.

As to `O=C1N(CC2CO2)C(=O)C(c2ccccc2)(c2ccccc2)N1CC1CO1` (centres unmarked) [R5 C6H5-R6 C6H5-, Diglycidyl-diphenylhydantoin], the “Testergebnis in % T/C” value is 136% (100 mg/kg) and 149% (200 mg/kg). Further, the response vs control in vivo at 100 mg/kg under setting [2] was 122%. For the same molecule, the response vs control in vivo at 200 mg/kg under setting [3] turned out to be 130%.

Consider `CC1(c2ccccc2)C(=O)N(CC2CO2)C(=O)N1CC1CO1` (centres unmarked) [R5 CH3-R6 C6H5-, Diglycidyl-5-phenyl-5-methyl-hydantoin], for which the response vs control in vivo at 50 mg/kg under setting [1] amounted to 100%. In addition, the response vs control in vivo at 100 mg/kg under setting [2] stood at 160%. The response vs control in vivo at 200 mg/kg under setting [3] amounted to 250%.

For the molecule `O=c1c2cc3c(=O)n(CC4CO4)c(=O)c3cc2c(=O)n1CC1CO1` (centres unmarked) [Beispiel 16, N,N^I-Diglycidylbenzoltetracarbonsäure-(1,2,4,5,)diimid], the “Verlängerungsrate T/C” value reads like this: (6,25 mg/kg per single dose) 156%; (12,5 mg/kg per single dose) 200%.

Regarding `O=c1n(CC2CO2)c2ccc(Cl)cc2n1CC1CO1` (centres unmarked) [R2 -H R3 -Cl, N,N'-Digylcidyl-5-chlor-benzimidazolon], the “Testergebnis in % T/C” value runs as follows: (25 mg/kg) 156%; (50 mg/kg) 181%; (100 mg/kg) 92%; (12,5 mg/kg) 145%. Moreover, under setting [4], the response vs control in vivo at 50 mg/kg was 191%. For the same molecule, under setting [5], the response vs control in vivo at 100 mg/kg amounted to 234%.

In the case of `O=c1cnn(CC2CO2)c(=O)n1CC1CO1` (centres unmarked) [Beispiel 20, 2,4-Diglycidyl-2,3,4,5-tetrahydro-1,2,4-triazin-3,5-dion], the response vs control in vivo at 50 mg/kg under setting [6] turned out to be 189%. Also, the response vs control in vivo at 100 mg/kg under setting [7] came to 228%.

For `O=c1c(I)cn(CC2CO2)c(=O)n1CC1CO1` (centres unmarked) [Diglycidyl-5-joduracil, N,N'-Diglycidyl-5-ioduracil], under setting [6], the response vs control in vivo at 50 mg/kg is 124%. Besides, the response vs control in vivo at 100 mg/kg under setting [7] came to 166%. The response vs control in vivo at 200 mg/kg under setting [8] came out at 189%.

Turning to Diglycidyl-butylglykoluril [Beispiel 4], the “durchschnittliche Lebenserwartung der Versuchstiere” value reads like this: under setting [9], 16,3 Tage; under setting [11], 19,3 Tage. In addition, the “Verlängerungsrate T/C (Testergebnis in % T/C)” value under setting [10] is on record as 164%, the “Verlängerungsrate T/C (Testergebnis in % T/C)” value under setting [12] is given as 194% and the “Verlängerungsrate T/C (Testergebnis in % T/C)” value under setting [14] is 272%. Under setting [13], the “durchschnittliche Lebensdauer der Testgruppe” value is reported as 27 Tage. The “Versuchstiere, die die Testdauer von 30 Tagen überleben” value (200 mg/kg per single dose, test group of 6 female mice) is on record as “ein Versuchstier”.

Take `O=c1n(CC2CO2)c2cc(Cl)c(Cl)cc2n1CC1CO1` (centres unmarked) [R2 -Cl R3 -Cl, N,N-Diglycidyl-5,6-di-chlor-benzimidazolon]: the response vs control in vivo at 50 mg/kg under setting [1] turned out to be 158%. Under setting [2], the response vs control in vivo at 100 mg/kg is 120%.

With `CCC1(CC)C(=O)N(CC2CO2)C(=O)N(CC2CO2)C1=O` (centres unmarked) [Beispiel 10, 1,3-Diglycidyl-5,5-diethylbarbitursäure], the “durchschnittliche Lebenserwartung der Versuchstiere” value is, setting by setting: under setting [9], 15,3 Tage; under setting [11], 22 Tage. Further, where the note is “second series, unit inferred”, the response vs control in vivo at 25 mg/kg was 94%. Moreover, the response vs control in vivo at 50 mg/kg runs as follows: under setting [15], 147%; under setting [16], 111%; under setting [4], 147%. In addition, the response vs control in vivo at 100 mg/kg reads like this: under setting [17], 211%; under setting [18], 158%; under setting [5], 211%. The response vs control in vivo at 200 mg/kg under setting [19] amounted to 230%.

As for `O=c1c(Br)cn(CC2CO2)c(=O)n1CC1CO1` (centres unmarked) [Diglycidyl-5-bromuracil, N,N'-Diglycidyl-5-bromuracil], the response vs control in vivo at 50 mg/kg under setting [6] came out at 173%. The response vs control in vivo at 100 mg/kg under setting [7] was 193%.

Take `O=C1N(CC2CO2)CCN1CC1CO1` (centres unmarked) [Beispiel 18 a), Diglycidylethylenharnstcff]: the response vs control in vivo at 25 mg/kg (second series, unit inferred) was determined as 119%. Moreover, the response vs control in vivo at 50 mg/kg is, setting by setting: under setting [15], 130%; under setting [16], 142%. Also, the response vs control in vivo at 100 mg/kg is, setting by setting: under setting [17], 155%; under setting [18], 158%. For the same molecule, the response vs control in vivo at 200 mg/kg is 206% (P388, read-out: Testergebnis T/C (T/C-Wert), 200 mg/kg per single dose, first series, unit inferred) and 213% under setting [19].

In the case of `CN1C(=O)N(CC2CO2)C2C1N(CC1CO1)C(=O)N2C` (centres unmarked) [Beispiel 5, 3,6 Diglycidyl-1,4-dimethylglykoluril], the “Verlängerungsrate T/C (Testergebnis in % T/C)” value came out at 134% under setting [10], 157% under setting [12] and 190% under setting [14]. Further, the “durchschnittliche Lebenserwartung der Versuchstiere” value under setting [11] is reported as 15,8 Tage.

For the molecule `O=c1n(CC2CO2)c2ccccc2n1CC1CO1` (centres unmarked) [Beispiel 1, N,N'-Digylcidyl-Benzimidazolon], the “Testergebnis in % T/C” value was determined as 133% (25 mg/kg), 136% (50 mg/kg), 161% (100 mg/kg) and 166% (200 mg/kg). Moreover, the “durchschnittliche Lebenserwartung der Versuchstiere” value reads like this: under setting [9], 15,3 Tage; under setting [11], 18 Tage. In addition, under setting [13], the “durchschnittliche Lebensdauer der Testgruppe” value is 20 Tage. Further, the response vs control in vivo at 50 mg/kg under setting [1] worked out at 154%. The response vs control in vivo at 100 mg/kg under setting [2] was 181%. Also, the response vs control in vivo at 200 mg/kg under setting [3] stood at 202%.

In the case of `CC1(C)C(=O)N(CC2CO2)C(=O)N1CC1CO1` (centres unmarked) [1,3-Diglycidyl-5,5-dimethylhydantoin], the “Testergebnis in % T/C” value runs as follows: (25 mg/kg) 136%; (50 mg/kg) 151%; (100 mg/kg) 239%. Further, the “durchschnittliche Lebenserwartung der Versuchstiere” value under setting [9] is 15,7 Tage and the “durchschnittliche Lebenserwartung der Versuchstiere” value under setting [11] was determined as 22 Tage. Also, the response vs control in vivo at 50 mg/kg under setting [1] came to 158%. In addition, the response vs control in vivo at 100 mg/kg under setting [2] came to 222%. Further, the “erhöhte Lebenserwartung gegenüber einer Kontrollgruppe nicht behandelter Versuchstiere” value (animal test at 100 mg/kg and 50 mg/kg) is not above 220%.

In the case of `CC1(C)C(=O)N(CC2CO2)C(=O)N1CN1C(=O)N(CC2CO2)C(=O)C1(C)C` (centres unmarked) [[drawing] r20], the response vs control in vivo at 200 mg/kg under setting [3] was 153%.

Source of the values: EP0033503A2, “Medicaments with cytostatic activity and use of cyclic compounds, in which the heterocyclic N-ring atoms are substituted by several glycidyl groups, in pharmaceutical compositions” (Henkel Kommanditgesellschaft auf Aktien, priority 1980, dated 1981).
